Source: PubChem BioAssay AID2060505 (Molecular Pharmacology Branch, DTP, NCI, 2025)
One block for each molecule: values may come before it.

Tested on: 633275-114-R-J1-PDC complex spheroids, viability
Assay: Anticancer human tumor 633275-114-R-J1-PDC patient-derived endometrial adenocarcinoma cell line growth inhibition [GQUAD]
Conditions: for IC50: curve of first compound; for viability, T/C: stronger effect = lower value
From the text: DNA G-quadruplex Stabilizer Agents in Combinations in Complex Spheroids
A high-throughput screen of multi-cell type tumor spheroids was designed to identify active combinations of DNA G-quadruplex stabilizer agents and targeted small molecules. Complex spheroids include a stromal component modeled by human endothelial cells (HUVEC) and fibroblasts modeled by human mesenchymal stem cells (MSCs). The concentration ranges selected for each drug and investigational agent were based upon clinically achievable concentrations if the clinical Cmax of the agent was known.
Compounds. The drugs and investigational agents: pidnarulex (CX-5461; NSC782164), APTO-253 (NSC789042), BRACO-19 (NSC847499), peposertib (NSC802822), ceralasertib (NSC780249), elimusertib (NSC800525), camonsertib (NSC841442), AZD-1390 (NSC803789), olaparib (NSC753686), talazoparib (NSC767125), ART-558 (NSC835418), sotorasib (NSC818433), MRTX-1133 (NSC836407), SN-38 (NSC673596), topotecan (NSC609699), etoposide (NSC141540), doxorubicin (NSC123127), gemcitabine (NSC613327), 5-fluorouracil (NSC19893), paclitaxel (NSC125973), vemurafenib (NSC761431), panobinostat (NSC761190), R-306465 (JNJ-16241199; NSC773264), adavosertib (NSC754352), TP-3654 (NSC805149), carboplatin (NSC241240), KSQ-4279 (NSC840948), and staurosporine (NSC755774) were obtained from the National Cancer Institute (NCI) Developmental Therapeutics Program Chemical Repository (34). The FDA-approved anticancer drug set is available from the NCI Developmental Therapeutics Program. […] The stock solutions were prepared in dimethyl sulfoxide (DMSO, Sigma-Aldrich, St. Louis, MO, cat. D2650) at 800-fold the tested concentration and stored at -70 degrees C prior to their use. All drugs and investigational agents were tested over a range starting from a high concentration at or near the clinical Cmax and decreasing in half-log increments. If the clinical Cmax for an agent had not been determined, the highest concentration tested was 10 microM.
2.3 Cell Culture. All cells were maintained in an incubator at 37 degrees C and 5% CO2 with 95% humidity. The PDC lines were cultured according to standard operating procedures established by the NCI PDMR. All PDCs were thawed and cultured in Matrigel-coated flasks prepared with a working solution of 1X Ham's F-12 nutrient mix, without supplementation (Invitrogen, cat. 11765054), 100 U/mL penicillin-streptomycin (Invitrogen, cat. 15140122), and 2.5% Matrigel (Corning Inc., cat. 354248) for the first three passages. The 857933-349-R-J2-PDC line was cultured in 6C/Colon 1B media, which includes advanced DMEM/F-12 (Thermo Fisher Scientific, cat. 12634028), 10 mM HEPES (Thermo Fisher Scientific, cat. 15630080), 1X GlutaMAX supplement (Thermo Fisher Scientific, cat. 35050061), 0.1 mg/mL primocin (InvivoGen, cat. ant-pm-2), 10% defined fetal bovine serum, heat inactivated (HyClone Laboratories Inc., cat. SH30070.03HI), 50% L-WRN conditioned media (ATCC, cat. CRL-3276), 1.25 mM N-Acetyl-L-cysteine (Sigma-Aldrich, cat. A9165), 10 mM nicotinamide (Sigma-Aldrich, cat. N0636), 1X B-27 supplement (Thermo Fisher Scientific, cat. 17504044), 1X N-2 supplement (Thermo Fisher Scientific, cat. 17502048), 10 microM Y-27632 dihydrochloride (Tocris Bioscience, cat. 1254), and 50 ng/mL human EGF recombinant protein (Thermo Fisher Scientific, cat. PHG0311). The 485176-168-R4-J1-PDC line was cultured in Panc media, which includes all 6C/Colon 1B media components plus 100 ng/mL human FGF-10 (Thermo Fisher Scientific, cat. 100-26), 500 nM SB-431542 (Selleckchem, cat. S1067), and gastrin (Tocris, cat. 3006).
[…]

[1] = second compound 0.0316 µM, first compound 0.0316 µM
[2] = second compound 0.0316 µM, first compound 0.1 µM
[3] = second compound 0.0316 µM, first compound 0.316 µM
[4] = second compound 0.0316 µM, first compound 1 µM
[5] = second compound 0.0316 µM, first compound 3.16 µM
[6] = second compound 0.0316 µM, first compound 10 µM
[7] = second compound 0.1 µM, first compound 0.0316 µM
[8] = second compound 0.1 µM, first compound 0.1 µM
[9] = second compound 0.1 µM, first compound 0.316 µM
[10] = second compound 0.1 µM, first compound 1 µM
[11] = second compound 0.1 µM, first compound 3.16 µM
[12] = second compound 0.1 µM, first compound 10 µM
[13] = second compound 0.316 µM, first compound 0.0316 µM
[14] = second compound 0.316 µM, first compound 0.1 µM
[15] = second compound 0.316 µM, first compound 0.316 µM
[16] = second compound 0.316 µM, first compound 1 µM
[17] = second compound 0.316 µM, first compound 3.16 µM
[18] = second compound 0.316 µM, first compound 10 µM
[19] = second compound 1 µM, first compound 0.0316 µM
[20] = second compound 1 µM, first compound 0.1 µM
[21] = second compound 1 µM, first compound 0.316 µM
[22] = second compound 1 µM, first compound 1 µM
[23] = second compound 1 µM, first compound 3.16 µM
[24] = second compound 1 µM, first compound 10 µM
[25] = second compound 3.16 µM, first compound 0.0316 µM
[26] = second compound 3.16 µM, first compound 0.1 µM
[27] = second compound 3.16 µM, first compound 0.316 µM
[28] = second compound 3.16 µM, first compound 1 µM
[29] = second compound 3.16 µM, first compound 3.16 µM
[30] = second compound 3.16 µM, first compound 10 µM
[31] = second compound 10 µM, first compound 0.0316 µM
[32] = second compound 10 µM, first compound 0.1 µM
[33] = second compound 10 µM, first compound 0.316 µM
[34] = second compound 10 µM, first compound 1 µM
[35] = second compound 10 µM, first compound 3.16 µM
[36] = second compound 10 µM, first compound 10 µM
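Note: spheroids exposed to the agents for seven days.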
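Throughout, for viability, T/C: percent of DMSO vehicle control viability which is 100%.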

IC50 (second compound 0.0316 µM): 179 nM
IC50 (second compound 0.1 µM): 60.3 nM
IC50 (second compound 0.316 µM): < 31.6 nM
IC50 (second compound 1 µM): < 31.6 nM
IC50 (second compound 3.16 µM): < 31.6 nM
IC50 (second compound 10 µM): < 31.6 nM
SMILES: COc1ccc([C@@H](O)c2cc(-c3ncnc4cc(N5CCOCC5)ccc34)c(F)cc2Cl)nn1 + Cc1cnc(CNC(=O)c2c(=O)c3ccc(N4CCCN(C)CC4)nc3n3c2sc2ccccc23)cn1
viability, T/C [1]: 59.8%
viability, T/C [2]: 60.3%
viability, T/C [3]: 40.9%
viability, T/C [4]: 29.2%
viability, T/C [5]: 19.2%
viability, T/C [6]: 12.2%
viability, T/C [7]: 51.5%
viability, T/C [8]: 50.5%
viability, T/C [9]: 36.1%
viability, T/C [10]: 25%
viability, T/C [11]: 18.8%
viability, T/C [12]: 11.2%
viability, T/C [13]: 48.6%
viability, T/C [14]: 45.7%
viability, T/C [15]: 30.1%
viability, T/C [16]: 24.9%
viability, T/C [17]: 20.6%
viability, T/C [18]: 11.9%
viability, T/C [19]: 40.2%
viability, T/C [20]: 37.9%
viability, T/C [21]: 28.4%
viability, T/C [22]: 24.6%
viability, T/C [23]: 18.1%
viability, T/C [24]: 11.1%
viability, T/C [25]: 34%
viability, T/C [26]: 29.4%
viability, T/C [27]: 27.6%
viability, T/C [28]: 21.8%
viability, T/C [29]: 18.7%
viability, T/C [30]: 11.5%
viability, T/C [31]: 30.8%
viability, T/C [32]: 27.5%
viability, T/C [33]: 28.6%
viability, T/C [34]: 19.9%
viability, T/C [35]: 16%
viability, T/C [36]: 3.93%

IC50 (second compound 0.0316 µM): 9930 nM
IC50 (second compound 0.1 µM): 43.6 nM
IC50 (second compound 0.316 µM): < 31.6 nM
IC50 (second compound 1 µM): < 31.6 nM
IC50 (second compound 3.16 µM): < 31.6 nM
IC50 (second compound 10 µM): < 31.6 nM
SMILES: O=C(c1cc(Cc2n[nH]c(=O)c3ccccc23)ccc1F)N1CCN(C(=O)C2CC2)CC1 + Cc1cnc(CNC(=O)c2c(=O)c3ccc(N4CCCN(C)CC4)nc3n3c2sc2ccccc23)cn1
viability, T/C [1]: 63%
viability, T/C [2]: 60.9%
viability, T/C [3]: 71.4%
viability, T/C [4]: 58.2%
viability, T/C [5]: 57.2%
viability, T/C [6]: 50.3%
viability, T/C [7]: 49.5%
viability, T/C [8]: 47.9%
viability, T/C [9]: 49.1%
viability, T/C [10]: 48.9%
viability, T/C [11]: 41.9%
viability, T/C [12]: 42.8%
viability, T/C [13]: 46.6%
viability, T/C [14]: 42.7%
viability, T/C [15]: 43.7%
viability, T/C [16]: 38.9%
viability, T/C [17]: 44%
viability, T/C [18]: 33.7%
viability, T/C [19]: 37.7%
viability, T/C [20]: 35.3%
viability, T/C [21]: 45.3%
viability, T/C [22]: 42.6%
viability, T/C [23]: 37%
viability, T/C [24]: 35.1%
viability, T/C [25]: 37.8%
viability, T/C [26]: 38.9%
viability, T/C [27]: 42.2%
viability, T/C [28]: 30.9%
viability, T/C [29]: 34.3%
viability, T/C [30]: 31%
viability, T/C [31]: 33.4%
viability, T/C [32]: 31.2%
viability, T/C [33]: 28.5%
viability, T/C [34]: 30.9%
viability, T/C [35]: 33.7%
viability, T/C [36]: 29.8%
